From US20220348558A1, “INHIBITORS OF ENCEPHALITIC ALPHAVIRUSES” (priority 2019, published 2022)

Key:
VEEV TC83 = assay: microbe, parasite or virus in culture; format: cell-based; details: Venezuelan equine encephalitis virus, Vero 76, 48 h, read-out: VEEV TC83 EC50 nM
WEEV California = assay: microbe, parasite or virus in culture; format: cell-based; details: Western equine encephalitis virus, Vero 76, 48 h, read-out: WEEV California EC50 nM

Row | SMILES | EC50 (VEEV TC83) [nM] | EC50 (WEEV California) [nM]
1 | COc1ccc(-n2c(C3CCCN3)nc3c(-c4ccc(N5CCOCC5)nc4)cc(C#N)cc3c2=O)cc1F (centres unmarked) [Example 124, 3-(3-fluoro-4-methoxyphenyl)-8-(6-morpholinopyridin-3-yl)-4-oxo-2-(pyrrolidin-2-yl)-3,4-dihydroquinazoline-6-carbonitrile] | 1 to 50 | 1 to 50
2 | COc1ccc(-c2cc(C#N)cc3c(=O)n(-c4ccc(OC)c(F)c4)c(C4CCCN4)nc23)cn1 (centres unmarked) [Example 125, 3-(3-fluoro-4-methoxyphenyl)-8-(6-methoxypyridin-3-yl)-4-oxo-2-(pyrrolidin-2-yl)-3,4-dihydroquinazoline-6-carbonitrile] | 1 to 50 | 1 to 50
3 | COc1ccc(-n2c(C3CCCN3)nc3c(-c4ccc(C#N)nc4)cc(C#N)cc3c2=O)cc1F (centres unmarked) [Example 126, 8-(6-cyanopyridin-3-yl)-3-(3-fluoro-4-methoxyphenyl)-4-oxo-2-(pyrrolidin-2-yl)-3,4-dihydroquinazoline-6-carbonitrile] | 1 to 50 | 51 to 150
4 | COc1ccc(-n2c(C3CCCN3)nc3c(-c4ccc(N5CCCC5)nc4)cc(C#N)cc3c2=O)cc1F (centres unmarked) [Example 127, 3-(3-fluoro-4-methoxyphenyl)-4-oxo-8-(6-(pyrrolidin-1-yl)pyridin-3-yl)-2-(pyrrolidin-2-yl)-3,4-dihydroquinazoline-6-carbonitrile] | 1 to 50 | 51 to 150
5 | COc1ccc(-n2c([C@H]3Cc4ccccc4N3)nc3c(-c4ccc(C)nc4)cc(C#N)cc3c2=O)cc1F [Example 128, (R)-3-(3-fluoro-4-methoxyphenyl)-2-(indolin-2-yl)-8-(6-methylpyridin-3-yl)-4-oxo-3,4-dihydroquinazoline-6-carbonitrile] | 1 to 50 | 151 to 500
6 | COc1ccc(-n2c(C3CCCN3)nc3c(-c4ccc(C(C)=O)nc4)cc(C#N)cc3c2=O)cc1F (centres unmarked) [Example 129, 8-(6-acetylpyridin-3-yl)-3-(3-fluoro-4-methoxyphenyl)-4-oxo-2-(pyrrolidin-2-yl)-3,4-dihydroquinazoline-6-carbonitrile] | 1 to 50 | 1 to 50
7 | COc1ccc(-n2c(C3CCCN3)nc3c(-c4ccc(N(C)C)nc4)cc(C#N)cc3c2=O)cc1F (centres unmarked) [Example 130, 8-(6-(dimethylamino)pyridin-3-yl)-3-(3-fluoro-4-methoxyphenyl)-4-oxo-2-(pyrrolidin-2-yl)-3,4-dihydroquinazoline-6-carbonitrile] | 1 to 50 | 1 to 50
8 | COc1ccc(-n2c(C3CCCN3)nc3c(-c4ccc(O)nc4)cc(C#N)cc3c2=O)cc1F (centres unmarked) [Example 131, 3-(3-fluoro-4-methoxyphenyl)-8-(6-hydroxypyridin-3-yl)-4-oxo-2-(pyrrolidin-2-yl)-3,4-dihydroquinazoline-6-carbonitrile] | 1 to 50 | 1 to 50
9 | COc1ccc(-n2c(C3CCCN3)nc3c(-c4ccc(N5CCN(C)CC5)nc4)cc(C#N)cc3c2=O)cc1F (centres unmarked) [Example 132, 3-(3-fluoro-4-methoxyphenyl)-8-(6-(4-methylpiperazin-1-yl)pyridin-3-yl)-4-oxo-2-(pyrrolidin-2-yl)-3,4-dihydroquinazoline-6-carbonitrile] | 1 to 50 | 1 to 50
10 | COc1ccc(-n2c(C3CCCN3)nc3c(-c4ccc(-c5ccccc5)nc4)cc(C#N)cc3c2=O)cc1F (centres unmarked) [Example 133, 3-(3-fluoro-4-methoxyphenyl)-4-oxo-8-(6-phenylpyridin-3-yl)-2-(pyrrolidin-2-yl)-3,4-dihydroquinazoline-6-carbonitrile] | 1 to 50 | 1 to 50
11 | COc1ccc(-n2c(C3CCCN3)nc3c(-c4ccc(CO)cc4)cc(C#N)cc3c2=O)cc1F (centres unmarked) [Example 134, 3-(3-fluoro-4-methoxyphenyl)-8-(4-(hydroxymethyl)phenyl)-4-oxo-2-(pyrrolidin-2-yl)-3,4-dihydroquinazoline-6-carbonitrile] | 1 to 50 | 1 to 50
12 | COc1ccc(-n2c(C3CCCN3)nc3c(-c4cnc(OC)c(OC)c4)cc(C#N)cc3c2=O)cc1F (centres unmarked) [Example 135, 8-(5,6-dimethoxypyridin-3-yl)-3-(3-fluoro-4-methoxyphenyl)-4-oxo-2-(pyrrolidin-2-yl)-3,4-dihydroquinazoline-6-carbonitrile] | 1 to 50 | 1 to 50
13 | COc1ccc(-n2c(C3CCCN3)nc3c(-c4ccc(S(C)(=O)=O)cc4)cc(C#N)cc3c2=O)cc1F (centres unmarked) [Example 136, 3-(3-fluoro-4-methoxyphenyl)-8-(4-(methylsulfonyl)phenyl)-4-oxo-2-(pyrrolidin-2-yl)-3,4-dihydroquinazoline-6-carbonitrile] | 1 to 50 | 1 to 50
14 | COc1ccc(-n2c(C3CCCN3)nc3c(-c4cnc(C)c(C)c4)cc(C#N)cc3c2=O)cc1F (centres unmarked) [Example 137, 8-(5,6-dimethylpyridin-3-yl)-3-(3-fluoro-4-methoxyphenyl)-4-oxo-2-(pyrrolidin-2-yl)-3,4-dihydroquinazoline-6-carbonitrile] | 1 to 50 | 1 to 50
15 | COc1ccc(-n2c(C3CCCN3)nc3c(-c4ccnc(C)c4)cc(C#N)cc3c2=O)cc1F (centres unmarked) [Example 138, 3-(3-fluoro-4-methoxyphenyl)-8-(2-methylpyridin-4-yl)-4-oxo-2-(pyrrolidin-2-yl)-3,4-dihydroquinazoline-6-carbonitrile] | 1 to 50 | 1 to 50
16 | COc1ccc(-n2c([C@@H]3C[C@@H]4CCCC[C@@H]4N3)nc3c(-c4ccc(C)nc4)cc(C#N)cc3c2=O)cc1F [Example 139, 3-(3-fluoro-4-methoxyphenyl)-8-(6-methylpyridin-3-yl)-2-((2S,3aS,7aS)-octahydro-1H-indol-2-yl)-4-oxo-3,4-dihydroquinazoline-6-carbonitrile] | 1 to 50 | 51 to 150
17 | COc1ccc(-n2c(C3C[C@@H]4CCC[C@@H]4N3)nc3c(-c4ccc(C)nc4)cc(C#N)cc3c2=O)cc1F (stereo partly drawn) [Example 140, 3-(3-fluoro-4-methoxyphenyl)-8-(6-methylpyridin-3-yl)-2-((3aS,6aS)-octahydrocyclopenta[b]pyrrol-2-yl)-4-oxo-3,4-dihydroquinazoline-6-carbonitrile] | 1 to 50 | 1 to 50
18 | COc1ccc(-n2c([C@@]3(C)CCCN3)nc3c(-c4ccc(C)nc4)cc(C#N)cc3c2=O)cc1F [Example 141, (R)-3-(3-fluoro-4-methoxyphenyl)-8-(6-methylpyridin-3-yl)-2-(2-methylpyrrolidin-2-yl)-4-oxo-3,4-dihydroquinazoline-6-carbonitrile] | 1 to 50 | 1 to 50
19 | COc1ccc(-n2c([C@]3(C)CCCN3)nc3c(-c4ccc(C)nc4)cc(C#N)cc3c2=O)cc1F [Example 142, (S)-3-(3-fluoro-4-methoxyphenyl)-8-(6-methylpyridin-3-yl)-2-(2-methylpyrrolidin-2-yl)-4-oxo-3,4-dihydroquinazoline-6-carbonitrile] | 1 to 50 | 1 to 50
20 | COc1ccc(-n2c(C3CC4CCC3N4)nc3c(-c4ccc(C)nc4)cc(C#N)cc3c2=O)cc1F (centres unmarked) [Example 143, 2-(7-azabicyclo[2.2.1]heptan-2-yl)-3-(3-fluoro-4-methoxyphenyl)-8-(6-methylpyridin-3-yl)-4-oxo-3,4-dihydroquinazoline-6-carbonitrile] | 51 to 150 | 151 to 500
21 | Cc1ccc(-c2cc(C#N)cc3c(=O)n(-c4ccc(N(C)C)c(F)c4)c(C4CCCN4)nc23)cn1 (centres unmarked) [Example 145, 3-(4-(Dimethylamino)-3-fluorophenyl)-8-(6-methylpyridin-3-yl)-4-oxo-2-(pyrrolidin-2-yl)-3,4-dihydroquinazoline-6-carbonitrile] | 1 to 50 | 151 to 500
22 | Cc1ccc(-c2cc(C#N)cc3c(=O)n(-c4ccc(N5CCOCC5)c(F)c4)c(C4CCCN4)nc23)cn1 (centres unmarked) [Example 146, 3-(3-Fluoro-4-morpholinophenyl)-8-(6-methylpyridin-3-yl)-4-oxo-2-(pyrrolidin-2-yl)-3,4-dihydroquinazoline-6-carbonitrile] | 151 to 500 | 501 to 1000
23 | COc1ccc(-c2cc(C#N)cc3c(=O)n(-c4ccc(OC)c(F)c4)c(C4CCCN4)nc23)cc1 (centres unmarked) [Example 147, 3-(3-Fluoro-4-methoxyphenyl)-8-(4-methoxyphenyl)-4-oxo-2-(pyrrolidin-2-yl)-3,4-dihydroquinazoline-6-carbonitrile] | 1 to 50 | 1 to 50
24 | COc1cccc(-c2cc(C#N)cc3c(=O)n(-c4ccc(OC)c(F)c4)c(C4CCCN4)nc23)c1 (centres unmarked) [Example 148, 3-(3-Fluoro-4-methoxyphenyl)-8-(3-methoxyphenyl)-4-oxo-2-(pyrrolidin-2-yl)-3,4-dihydroquinazoline-6-carbonitrile] | 1 to 50 | 1 to 50
25 | COc1ccc(-c2cc(C#N)cc3c(=O)n(-c4ccc(OC)c(F)c4)c(C4CCCN4)nc23)cc1F (centres unmarked) [Example 149, 3,8-Bis(3-fluoro-4-methoxyphenyl)-4-oxo-2-(pyrrolidin-2-yl)-3,4-dihydroquinazoline-6-carbonitrile] | 1 to 50 | 1 to 50
26 | COc1ccc(-n2c(C3CCCN3)nc3c(-c4ccc(OC(F)(F)F)cc4)cc(C#N)cc3c2=O)cc1F (centres unmarked) [Example 151, 3-(3-Fluoro-4-methoxyphenyl)-4-oxo-2-(pyrrolidin-2-yl)-8-(4-(trifluoromethoxy)phenyl)-3,4-dihydroquinazoline-6-carbonitrile] | 1 to 50 | 1 to 50
27 | COc1ccc(-n2c(C3CCCN3)nc3c(-c4ccc(OC)c(OC)c4)cc(C#N)cc3c2=O)cc1F (centres unmarked) [Example 152, 8-(3,4-Dimethoxyphenyl)-3-(3-fluoro-4-methoxyphenyl)-4-oxo-2-(pyrrolidin-2-yl)-3,4-dihydroquinazoline-6-carbonitrile] | 1 to 50 | 1 to 50
28 | COc1ccc(-n2c(C3CCCN3)nc3c(-c4ccc(N5CCOCC5)cc4)cc(C#N)cc3c2=O)cc1F (centres unmarked) [Example 153, 3-(3-Fluoro-4-methoxyphenyl)-8-(4-morpholinophenyl)-4-oxo-2-(pyrrolidin-2-yl)-3,4-dihydroquinazoline-6-carbonitrile] | 1 to 50 | 1 to 50
